How the values were obtained:
Assay type in all cases: cell-based
[1] = system: Akt and FOXO1 phosphorylation in cultured murine primary myoblasts; test: Akt and FOXO1 phosphorylation by western blot in primary myoblasts with Ca2+ ionophore; conditions: 1 μM ionophore, 1 mM Ca2+, n=4
Procedure: Western blotting: Whole cell protein extracts were prepared by homogenizing skeletal muscle tissue in NaCl 150 mM, Tris-HCl 50 mM (pH 7.8), supplemented with 1.5% Triton X-100, protease and phosphatase inhibitors (Roche). Nuclear extracts were obtained using the Subcellular Protein Fractionation Kit for Tissues (Thermo Scientific).
Electrophoresis was performed on 3-8% gradient Nu-Page Tris-Acetate or 10% Nu-Page Bis-Tris gels and transferred to 0.2 μm Sequi-Blot PVDF membranes (Bio-Rad). The membranes were blotted with total AKT1 and phospho-AKT1([…], T308, Cell Signaling), FOXO1 (Cell Signaling), total OXPHOS (rodent, Abcam), musclin (custom rabbit IgG produced against partial mouse musclin sequence NH2-sfsgfgspldrlsagsvehrgkqrkavdhskkr-COOH (SEQ ID NO: 4), corresponding to amino acids 80-112, Gen Bank ID: AAS87598.1, Anaspec, Fremont, Calif.), and GAPDH (Santa Cruz Biotechnologies) antibodies. Densitometric analysis of western blots was performed using Adobe Photoshop (Adobe Systems, San Jose, Calif.).
(§1) Mouse primary myoblasts were isolated from gastrocnemius muscle of 4-6 weeks old mice. Fresh muscle tissue was digested with 2 mg/ml collagenase II in DMEM-F12 for 1.5 h at 37° C.; then 30 min at 37° C. with 1 mg/ml collagenase II and 0.5 mg/ml dispase in DMEM-F12. Tissue was ground and passed through a 100 μm then 70 μm cell strainer and spun at 1000 rpm for 10 min. Myoblasts were resuspended in DMEM-F12 supplemented with 20% FBS, 40 ng/ml bFGF, non-essential amino acids, 1 mM β-mercaptoethanol. Cells were plated on matrigel coated dishes. Cells were maintained in DMEM-F12 supplemented with 20% FBS, 10 ng/ml bFGF, non-essential amino acids, 1 mM β-mercaptoethanol until 80% confluent. Then they were differentiated in DMEM-F12 supplemented with 2% FBS and insulin-transferrin-selenium for 10 days. Human skeletal myoblast primary culture (lot #SLSK002, Zenbio, Research Triangle Park, NC) was maintained according to the supplier's manual.

[2] = system: musclin mRNA in murine cultured primary myoblasts; test: Musclin mRNA normalized to HPRT in murine cultured primary myoblasts
Procedure: (§2) RNA isolation and quantitative reverse transcriptase polymerase chain reaction (qRT-PCR): Total RNA from mouse tissues and primary myocytes was isolated using RNeasy RNA Isolation Kit (Qiagen). A 1 μg primary myocyte or tissue RNA sample was used to synthesize cDNA in 50 μl reactions using Oligo(dT) as primer and SuperScript III Reverse Transcriptase (Invitrogen). Quantitative real-time PCR was performed on Mastercycler epgradient S (Eppendorf) using SYBR green based PCR reactions. For quantitative RT-PCR, 1 μl of reverse transcription reaction was mixed with 10 pmoles each specific primer and 12.5 μl SYBR PCR Master Mix (BioRad). The reaction was incubated for 40 cycles consisting of denaturation at 95° C. for 10 s and annealing/extension at 59.9° C.—for musclin, HPRT, Nrf2, 56° C.—for PGC1α, Tfam, Nrf1, for 1 min. The quality of the PCR product was routinely checked by a thermal denaturation curve following the qPCR reactions. The threshold cycle (CT) was determined by Realplex2 software (Eppendorf), and quantification of relative mRNA levels was performed by ΔΔCT method. The primers used in this study are HPRT: HPRTF—GGACCTCTCGAAGTGTTGGATAC (SEQ ID NO: 16), HPRTR—GCTCATCTTAGGCTTTGTATTTGGCT (SEQ ID NO: 17); musclin: MuscF-TGTGGACTTAGCATCACAGG (SEQ ID NO: 18), MuscR-AGC TGA GAG TCT GTC AAG G (SEQ ID NO: 19); PGC1α: PGC1aF-TGATGTGAATGACTTGGATACAGACA (SEQ ID NO: 20), PGC1αR-GCTCATTGTTGTACTGGTTGGATATG (SEQ ID NO: 21); TfamF—GGAATGTGGAGCGTGCTAAAA (SEQ ID NO: 22), TfamR—TGCTGGAAAAACACTTCGGAATA (SEQ ID NO: 23); Nrf1F—CGC AGC ACC TTT GGA GAA (SEQ ID NO: 24, Nrf1R—CCCGACCTGTGGAATACTTG (SEQ ID NO: 25); Nrf2F—CAG CTC AAG GGC ACA GTG C (SEQ ID NO: 26), Nrf2R—GTG GCC CAA GTC TTG CTC C (SEQ ID NO: 27).
as §1

[3] = system: musclin mRNA in human cultured primary myoblasts; test: Musclin mRNA normalized to HPRT in human cultured primary myoblasts
Procedure: as §2, §1

[4] = system: OPA1 mRNA; test: OPA1 mRNA normalized to HPRT by PCR in myotube culture; conditions: n=3
Procedure: RNA isolation and quantitative reverse transcriptase polymerase chain reaction (qRT-PCR): Total RNA from mouse tissues and primary myocytes was isolated using RNeasy RNA Isolation Kit (Qiagen). A 1 μg primary myocyte or tissue RNA sample was used to synthesize cDNA in 50 μl reactions using Oligo(dT) as primer and SuperScript III Reverse Transcriptase (Invitrogen). Quantitative real-time PCR was performed on Mastercycler epgradient S (Eppendorf) using SYBR green based PCR reactions. For quantitative RT-PCR, 1 μl of reverse transcription reaction was mixed with 10 pmoles each specific primer and 12.5 μl SYBR PCR Master Mix (BioRad). The reaction was incubated for 40 cycles consisting of denaturation at 95° C. for 10 s and annealing/extension at 59.9° C.—for musclin, HPRT, Nrf2, 56° C.—for PGC1α, Tfam, Nrf1, for 1 min. The quality of the PCR product was routinely checked by a thermal denaturation curve following the qPCR reactions. The threshold cycle (CT) was determined by Realplex2 software (Eppendorf), and quantification of relative mRNA levels was performed by relative mRNA levels was performed by ΔΔCT method. […]

[5] = system: cGMP production in murine primary myoblasts; test: cGMP production in skeletal myoblast culture exposed to ANP and musclin; conditions: n=3
Procedure: Cyclic GMP levels were measured using cyclicGMP EIA kit (Cayman Chemical Company, Ann Arbor, Mich.). Mice were exercised for 5 days, 12 m/min, 45 min before tissue collection. At the day of the experiment mice were exercised 12 m/min, 20 min, sedated with isoflurane and gastrocnemius muscle tissue was collected. Cyclic nucleotides were extracted using 5% trichloracetic acid. Samples were acetylated and used for cGMP level measurements according to the manufacturer's protocol.
as §1

[6] = 0.5 μM ionophore, 1.0 mM Ca2+, n=3
[7] = 1 μM ionophore, 1.0 mM Ca2+, n=3

CNc1ccc2oc(C[C@H]3O[C@@]4(CC[C@H]3C)O[C@H]([C@H](C)C(=O)c3ccc[nH]3)[C@H](C)C[C@H]4C)nc2c1C(=O)O [A23187]
p-Akt/GAPDH [1]: 0.91±0.05 | pAkt/total Akt [1]: 0.66±0.03 | pFOXO1/GAPDH [1]: 0.39±0.04 | pFOXO1/total FOXO1 [1]: 0.27±0.03 | musclin mRNA [2, 6]: 2.20±0.06 AU | musclin mRNA [2, 7]: 3.60±0.81 AU | musclin mRNA ([2]; ionophore with removal of extracellular Ca2+ from the medium, n=3, p=NS vs. control): 0.96±0.012 AU | musclin mRNA [3, 6]: 3.02±0.23 AU | musclin mRNA ([3]; 0.5 μM ionophore, Ca2+-free buffer, n=3, p=NS): 0.74±0.18 AU | musclin mRNA [3, 7]: 3.95±0.83 AU | musclin mRNA ([3]; 1 μM ionophore, Ca2+-free buffer, n=3, p=NS): 0.79±0.18 AU

O=c1[nH]c2ccccc2n1C1CCN(Cc2ccc(-c3nc4cc5[nH]cnc5cc4nc3-c3ccccc3)cc2)CC1 [Akt inhibitor-viii]
musclin mRNA ([2]; myoblasts pre-treated with Akt inhibitor-viii before Ca2+ ionophore, n=3, p=NS vs. control): 1.09±0.03 AU

Nc1nc2c(nc(Br)n2[C@@H]2O[C@@H]3COP(=O)(O)O[C@H]3[C@H]2O)c(=O)[nH]1 [8-Br-cGMP]
OPA1 mRNA normalized to HPRT ([4]; 8-Br-cGMP): 5.61±0.36

CC[C@H](C)[C@@H]1NC(=O)[C@H](CCCNC(=N)N)NC(=O)[C@H](CC(=O)O)NC(=O)[C@H](CCSC)NC(=O)[C@H](CCCNC(=N)N)NC(=O)CNC(=O)CNC(=O)[C@H](Cc2ccccc2)NC(=O)[C@@H](NC(=O)[C@H](CO)NC(=O)[C@H](CO)NC(=O)[C@H](CCCNC(=N)N)NC(=O)[C@H](CCCNC(=N)N)NC(=O)[C@H](CC(C)C)NC(=O)[C@@H](N)CO)CSSC[C@@H](C(=O)N[C@@H](CC(N)=O)C(=O)N[C@@H](CO)C(=O)N[C@@H](Cc2ccccc2)C(=O)N[C@@H](CCCNC(=N)N)C(=O)N[C@@H](Cc2ccc(O)cc2)C(=O)O)NC(=O)CNC(=O)[C@H](CC(C)C)NC(=O)CNC(=O)[C@H](CO)NC(=O)[C@H](CCC(N)=O)NC(=O)[C@H](C)NC(=O)CNC1=O [ANP, atrial natriuretic peptide, reference compound]
cGMP production ([5]; 1 μM ANP): 3.491±0.057 fmol/μg protein | cGMP production ([5]; 5 μM ANP): 6.046±0.074 fmol/μg protein | OPA1 mRNA normalized to HPRT ([4]; ANP 5 μM): 4.21±0.24

Reference: patent publication US11634466B2, “Musclin peptides and methods of use thereof” (UNIVERSITY OF IOWA RESEARCH FOUNDATION, priority 2016, dated 2023)
